Reference: US20210345613A1, “HERBICIDAL PYRIMIDINE COMPOUNDS” (BASF SE, priority 2016, published 2021)

Assays:
Type in all cases: in vivo
Amaranthus retroflexus = assay: greenhouse herbicidal test, post-emergence treatment; conditions: post-emergence method, application rate 2000 g/ha, scale from 0 to 100, test period 2 to 4 weeks
Description: (§1) The seeds of the test plants were sown separately for each species. For the post-emergence treatment, the test plants were first grown to a height of 3 to 15 cm, depending on the plant habit, and only then treated with the active ingredients which had been suspended or emulsified in water. For this purpose, the test plants were either sown directly and grown in the same containers, or they were first grown separately as seedlings and transplanted into the test containers a few days prior to treatment. Depending on the species, the plants were kept at 10-25° C. or 20-35° C., respectively. The test period extended over 2 to 4 weeks. During this time, the plants were tended, and their response to the individual treatments was evaluated. Evaluation was carried out using a scale from 0 to 100. 100 means no emergence of the plants, or complete destruction of at least the aerial moieties, and 0 means no damage, or normal course of growth. A good herbicidal activity is given at values of at least 70 and a very good herbicidal activity is given at values of at least 85. The plants used in the greenhouse experiments were of the following species: [table]

Matricaria inodora = assay: as above; conditions: post-emergence method, application rate 2000 g/ha, scale from 0 to 100, test period 2 to 4 weeks
Description: as §1

Echinocloa crus-galli [1] = assay: as above; conditions: post-emergence method, application rate 2000 g/ha, scale from 0 to 100, test period 2 to 4 weeks
Description: as §1

Apera spica-venti = assay: greenhouse herbicidal test, pre-emergence treatment; conditions: pre-emergence method, application rate 2000 g/ha, scale from 0 to 100, test period 2 to 4 weeks
Description: (§2) The seeds of the test plants were sown separately for each species. For the pre-emergence treatment, the active ingredients, which had been suspended or emulsified in water, were applied directly after sowing by means of finely distributing nozzles. The containers were irrigated gently to promote germination and growth and subsequently covered with transparent plastic hoods until the plants had rooted. This cover caused uniform germination of the test plants, unless this had been impaired by the active ingredients. Depending on the species, the plants were kept at 10-25° C. or 20-35° C., respectively. The test period extended over 2 to 4 weeks. During this time, the plants were tended, and their response to the individual treatments was evaluated. Evaluation was carried out using a scale from 0 to 100. 100 means no emergence of the plants, or complete destruction of at least the aerial moieties, and 0 means no damage, or normal course of growth. A good herbicidal activity is given at values of at least 70 and a very good herbicidal activity is given at values of at least 85. The plants used in the greenhouse experiments were of the following species: [table]

Alopecurus myosuroides = assay: greenhouse herbicidal test, post-emergence treatment; conditions: post-emergence method, application rate 2000 g/ha, scale from 0 to 100, test period 2 to 4 weeks
Description: as §1

Avena fatua = assay: as above; conditions: post-emergence method, application rate 2000 g/ha, scale from 0 to 100, test period 2 to 4 weeks
Description: as §1

Setaria viridis = assay: as above; conditions: post-emergence method, application rate 2000 g/ha, scale from 0 to 100, test period 2 to 4 weeks
Description: as §1

Echinocloa crus-galli [2] = assay: greenhouse herbicidal test, pre-emergence treatment; conditions: pre-emergence method, application rate 2000 g/ha, scale from 0 to 100, test period 2 to 4 weeks
Description: as §2

ABUTH = assay: greenhouse herbicidal test, post-emergence treatment; conditions: post-emergence method, application rate 2000 g/ha, scale from 0 to 100, test period 2 to 4 weeks
Description: as §1, with “85.” for “85. The plants used in the greenhouse experiments were of the following species: [table]”

Row | SMILES | herbicidal activity against AMARE (Amaranthus retroflexus) | herbicidal activity against MATIN (Matricaria inodora) | herbicidal activity against ECHCG (Echinocloa crus-galli [1]) | herbicidal activity against APESV (Apera spica-venti) | herbicidal activity against ALOMY (Alopecurus myosuroides) | herbicidal activity against AVEFA (Avena fatua) | herbicidal activity against SETVI (Setaria viridis) | herbicidal activity against ECHCG (Echinocloa crus-galli [2]) | herbicidal activity against ABUTH (ABUTH)
1 | Cc1nc(C2CC2)ncc1-c1ncccc1Cl [Ex.01] | very good (a very good herbicidal activity is given at values of at least 85) | very good (a very good herbicidal activity is given at values of at least 85) | – | – | – | – | – | – | –
2 | CCOC(=O)C(C)c1nc(C2CC2)ncc1-c1ncccc1Cl (stereo not shown) [Ex.21] | good (A good herbicidal activity is given at values of at least 70) | – | very good (a very good herbicidal activity is given at values of at least 85) | good (A good herbicidal activity is given at values of at least 70) | – | – | – | – | –
3 | CCOC(=O)C(C)(C)c1nc(C2CC2)ncc1-c1ncccc1Cl [Ex.22] | very good (a very good herbicidal activity is given at values of at least 85) | – | – | – | – | – | – | – | –
4 | OC(Cc1nc(C2CC2)ncc1-c1ncccc1Cl)c1ccco1 (stereo not shown) [Ex.24] | – | – | – | very good (a very good herbicidal activity is given at values of at least 85) | very good (a very good herbicidal activity is given at values of at least 85) | good (A good herbicidal activity is given at values of at least 70) | good (A good herbicidal activity is given at values of at least 70) | very good (a very good herbicidal activity is given at values of at least 85) | –
5 | CC(O)Cc1nc(C2CC2)ncc1-c1ncccc1Cl (stereo not shown) [Ex.29] | – | – | – | very good (a very good herbicidal activity is given at values of at least 85) | – | – | very good (a very good herbicidal activity is given at values of at least 85) | very good (a very good herbicidal activity is given at values of at least 85) | good (A good herbicidal activity is given at values of at least 70)
6 | OC(Cc1nc(C2CC2)ncc1-c1ncccc1Cl)c1cccs1 (stereo not shown) [Ex.33] | very good (a very good herbicidal activity is given at values of at least 85) | – | good (A good herbicidal activity is given at values of at least 70) | – | – | – | – | – | –
7 | Cc1occc1-c1nc(C2CC2)ncc1-c1ncccc1Cl [Ex.34] | very good (a very good herbicidal activity is given at values of at least 85) | – | – | very good (a very good herbicidal activity is given at values of at least 85) | very good (a very good herbicidal activity is given at values of at least 85) | good (A good herbicidal activity is given at values of at least 70) | – | very good (a very good herbicidal activity is given at values of at least 85) | –
8 | Clc1cccnc1-c1cnc(C2CC2)nc1C=Cc1cccs1 [Ex.35] | – | – | – | very good (a very good herbicidal activity is given at values of at least 85) | very good (a very good herbicidal activity is given at values of at least 85) | good (A good herbicidal activity is given at values of at least 70) | very good (a very good herbicidal activity is given at values of at least 85) | very good (a very good herbicidal activity is given at values of at least 85) | –
9 | Clc1cccnc1-c1cnc(C2CC2)nc1C=Cc1ccccc1 [Ex.37] | very good (a very good herbicidal activity is given at values of at least 85) | – | – | – | – | – | very good (a very good herbicidal activity is given at values of at least 85) | – | very good (a very good herbicidal activity is given at values of at least 85)
10 | CCC(=O)Cc1nc(C2CC2)ncc1-c1ncccc1Cl [Ex.44] | good (A good herbicidal activity is given at values of at least 70) | – | – | very good (a very good herbicidal activity is given at values of at least 85) | very good (a very good herbicidal activity is given at values of at least 85) | – | – | very good (a very good herbicidal activity is given at values of at least 85) | –
